Our source for the IC50 values is ChEMBL document CHEMBL3046784, “Exploring QSAR of antiamoebic agents of isolated natural products by MLR, ANN, and RTO” (Med Chem Res, 2012).

≈ marks a conversion by molar mass, not a printed value.

The experiment concerns Entamoeba histolytica. As to the kind of experiment: Antiamoebic activity against Entamoeba histolytica. In kind it is functional, organism-based. To be noted: Entamoeba histolytica; read-out: IC50.
A word on the IC50: it is the concentration needed to halve the response being measured. In the case of `Cc1cc2c(C(C)C)c(O)c(O)c(C=O)c2c(O)c1-c1c(C)cc2c(C(C)C)c(O)c(O)c(C=O)c2c1O` [GOSSYPOL], the IC50 is 0.00777 µg/mL (≈ 0.015 µM).

For `C/C=C1/CN2CC[C@]34c5ccccc5N(C(C)=O)[C@H]3[C@H]([C@H]3OC[C@@H]5[C@H]6C[C@@H]7N(CC[C@@]78c7ccccc7N3[C@@H]58)C[C@H]6CC)[C@H]1C[C@H]24` [ISOSTRYCHNOBILINE], the IC50 was 20.9 µg/mL (≈ 33.8 µM).

In the case of `O=c1c(O)c(-c2ccccc2)oc2cc(O)cc(O)c12` [GALANGIN], the IC50 came to 159 µg/mL (≈ 587 µM).
